Measured values taken from paper PMC3961306, “Comparison of the Cancer Gene Targeting and Biochemical Selectivities of All Targeted Kinase Inhibitors Approved for Clinical Use” (PLoS ONE, 2014).

Experiments:
Assay in all cases: Kinase profiling in a biochemical assay panel (mobility shift assays and ELISA), %-inhibition at 1 μM; selectivity entropy
[1] = target: panel of more than 300 wild-type and mutant kinases (313 kinase panel) (Homo sapiens, UniProt P29376)
[2] = target: T1, panel of more than 300 wild-type and mutant kinases (313 kinase panel) (Homo sapiens, UniProt O15530)
T1 sequence (O15530 1-556): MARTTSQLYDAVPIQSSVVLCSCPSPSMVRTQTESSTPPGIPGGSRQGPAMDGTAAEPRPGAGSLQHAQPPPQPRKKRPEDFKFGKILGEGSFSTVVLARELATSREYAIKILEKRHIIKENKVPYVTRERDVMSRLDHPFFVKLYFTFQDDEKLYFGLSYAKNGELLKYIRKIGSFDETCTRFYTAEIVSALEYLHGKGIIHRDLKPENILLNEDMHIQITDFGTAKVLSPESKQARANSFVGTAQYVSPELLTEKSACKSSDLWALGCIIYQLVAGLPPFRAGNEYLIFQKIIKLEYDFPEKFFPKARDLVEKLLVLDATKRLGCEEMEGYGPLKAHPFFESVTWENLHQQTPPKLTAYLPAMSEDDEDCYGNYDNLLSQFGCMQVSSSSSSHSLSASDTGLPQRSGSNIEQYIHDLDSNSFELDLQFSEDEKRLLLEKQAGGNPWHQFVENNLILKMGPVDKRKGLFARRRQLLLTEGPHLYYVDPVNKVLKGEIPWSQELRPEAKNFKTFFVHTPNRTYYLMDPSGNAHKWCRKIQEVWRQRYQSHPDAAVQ

[3] = target: T2, panel of more than 300 wild-type and mutant kinases (313 kinase panel) (Homo sapiens, UniProt P42680)
T2 sequence (P42680 1-631): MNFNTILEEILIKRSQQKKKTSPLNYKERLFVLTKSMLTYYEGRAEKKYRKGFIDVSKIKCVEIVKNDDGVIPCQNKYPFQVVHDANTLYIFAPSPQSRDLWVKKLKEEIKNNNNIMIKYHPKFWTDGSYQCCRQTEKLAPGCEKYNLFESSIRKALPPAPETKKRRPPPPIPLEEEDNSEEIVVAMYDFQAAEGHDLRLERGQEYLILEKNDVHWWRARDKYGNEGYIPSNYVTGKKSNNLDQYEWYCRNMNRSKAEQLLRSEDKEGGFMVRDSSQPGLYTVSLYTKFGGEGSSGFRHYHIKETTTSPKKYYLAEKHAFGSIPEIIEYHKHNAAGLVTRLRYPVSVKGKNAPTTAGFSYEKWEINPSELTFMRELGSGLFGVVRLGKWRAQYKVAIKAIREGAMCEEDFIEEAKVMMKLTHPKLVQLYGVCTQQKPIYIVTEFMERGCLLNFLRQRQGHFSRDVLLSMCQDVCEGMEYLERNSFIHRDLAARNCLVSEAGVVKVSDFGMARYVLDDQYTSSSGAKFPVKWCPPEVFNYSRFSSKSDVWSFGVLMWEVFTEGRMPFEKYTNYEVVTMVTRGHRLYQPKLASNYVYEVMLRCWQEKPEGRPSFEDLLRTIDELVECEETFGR

[4] = target: T3, panel of more than 300 wild-type and mutant kinases (313 kinase panel) (Homo sapiens, UniProt Q8TDC3)
T3 sequence (Q8TDC3 1-778): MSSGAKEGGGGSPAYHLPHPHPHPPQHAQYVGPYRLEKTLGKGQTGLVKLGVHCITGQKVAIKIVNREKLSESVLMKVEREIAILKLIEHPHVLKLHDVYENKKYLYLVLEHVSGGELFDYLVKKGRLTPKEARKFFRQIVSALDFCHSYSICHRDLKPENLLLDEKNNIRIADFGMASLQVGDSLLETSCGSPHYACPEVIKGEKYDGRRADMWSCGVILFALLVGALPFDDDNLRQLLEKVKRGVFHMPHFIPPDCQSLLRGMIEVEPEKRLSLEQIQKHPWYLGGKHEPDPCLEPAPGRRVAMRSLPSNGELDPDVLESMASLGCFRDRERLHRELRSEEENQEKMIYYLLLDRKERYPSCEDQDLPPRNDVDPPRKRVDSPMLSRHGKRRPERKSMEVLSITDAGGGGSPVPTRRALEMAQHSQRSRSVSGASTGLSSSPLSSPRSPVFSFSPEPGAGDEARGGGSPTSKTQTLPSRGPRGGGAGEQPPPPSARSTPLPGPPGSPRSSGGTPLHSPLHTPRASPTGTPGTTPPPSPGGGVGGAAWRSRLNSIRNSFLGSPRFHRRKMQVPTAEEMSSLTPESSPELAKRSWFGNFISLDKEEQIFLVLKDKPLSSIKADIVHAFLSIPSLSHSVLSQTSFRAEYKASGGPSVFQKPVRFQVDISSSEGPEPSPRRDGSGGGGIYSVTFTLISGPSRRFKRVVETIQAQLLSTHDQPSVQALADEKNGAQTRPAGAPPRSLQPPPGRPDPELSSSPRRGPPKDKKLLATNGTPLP

[5] = target: T4, panel of more than 300 wild-type and mutant kinases (313 kinase panel) (Homo sapiens, UniProt P41743)
T4 sequence (P41743 1-596): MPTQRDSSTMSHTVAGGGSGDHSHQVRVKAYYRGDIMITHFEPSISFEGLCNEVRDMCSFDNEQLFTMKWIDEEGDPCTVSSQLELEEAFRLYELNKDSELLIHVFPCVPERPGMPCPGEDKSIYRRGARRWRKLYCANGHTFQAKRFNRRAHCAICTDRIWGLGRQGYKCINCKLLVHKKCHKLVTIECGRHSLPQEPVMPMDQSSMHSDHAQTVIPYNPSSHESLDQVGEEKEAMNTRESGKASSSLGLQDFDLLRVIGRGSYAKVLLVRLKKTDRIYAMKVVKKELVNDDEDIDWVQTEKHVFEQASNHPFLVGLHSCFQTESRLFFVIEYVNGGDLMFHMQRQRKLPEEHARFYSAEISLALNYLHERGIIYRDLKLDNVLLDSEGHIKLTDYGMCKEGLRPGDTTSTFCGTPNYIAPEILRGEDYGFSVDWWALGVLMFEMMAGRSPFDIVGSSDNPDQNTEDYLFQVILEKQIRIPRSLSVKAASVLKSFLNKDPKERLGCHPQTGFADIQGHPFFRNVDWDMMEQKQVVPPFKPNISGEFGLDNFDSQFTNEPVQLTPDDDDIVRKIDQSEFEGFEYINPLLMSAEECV

SMILES	%-inhibition of LTK ([1]; kinase LTK, compound at 1 μM)	%-inhibition of PDK1 ([2]; kinase PDK1, 1 μM)	%-inhibition of TEC ([3]; kinase TEC, 1 μM)	%-inhibition, BRSK1 ([4]; kinase BRSK1, 1 μM compound)	%-inhibition of PKCι ([5]; kinase PKCι, 1 μM)	%-inhibition of LTK ([1]; 1 µM)	%-inhibition of PDK1 ([2]; 1 µM)	%-inhibition of TEC ([3]; 1 µM)	%-inhibition, BRSK1 ([4]; 1 µM)	%-inhibition of PKCι ([5]; 1 µM)
COc1cc(Nc2c(C#N)cnc3cc(OCCCN4CCN(C)CC4)c(OC)cc23)c(Cl)cc1Cl [bosutinib]	59%	-4.64%	58%	-11%	5%	–	–	–	–	–
COc1cc2nccc(Oc3ccc(NC(=O)C4(C(=O)Nc5ccc(F)cc5)CC4)cc3)c2cc1OC [cabozantinib]	61%	-7%	43%	3.24%	15%	–	–	–	–	–
C[C@@H](Oc1cc(-c2cnn(C3CCNCC3)c2)cnc1N)c1c(Cl)ccc(F)c1Cl [crizotinib]	–	-5%	1.53%	12%	-5%	–	–	–	–	–
CC(C)(C)c1nc(-c2cccc(NS(=O)(=O)c3c(F)cccc3F)c2F)c(-c2ccnc(N)n2)s1 [dabrafenib]	2.67%	-5.38%	38%	37%	14%	–	–	–	–	–
C#Cc1cccc(Nc2ncnc3cc(OCCOC)c(OCCOC)cc23)c1 [erlotinib]	–	–	–	–	–	41%	3%	20%	5.68%	9%
CO[C@H]1C[C@@H]2CC[C@@H](C)[C@@](O)(O2)C(=O)C(=O)N2CCCC[C@H]2C(=O)O[C@H]([C@H](C)C[C@@H]2CC[C@@H](OCCO)[C@H](OC)C2)CC(=O)[C@H](C)/C=C(\C)[C@@H](O)[C@@H](OC)C(=O)[C@H](C)C[C@H](C)/C=C/C=C/C=C/1C [everolimus]	-12%	-9%	-4%	-9%	3.78%	–	–	–	–	–
O=S(=O)(c1cccc2cnccc12)N1CCCNCC1 [fasudil]	-3.76%	-2.83%	-7%	-0.211%	14%	–	–	–	–	–
CS(=O)(=O)CCNCc1ccc(-c2ccc3ncnc(Nc4ccc(OCc5cccc(F)c5)c(Cl)c4)c3c2)o1 [lapatinib]	4.66%	–	0%	2%	-0.659%	–	-2.71%	–	–	–
Cc1cn(-c2cc(NC(=O)c3ccc(C)c(Nc4nccc(-c5cccnc5)n4)c3)cc(C(F)(F)F)c2)cn1 [nilotinib]	7.51%	-4.33%	-0.144%	0.801%	-8%	–	–	–	–	–
